Data on four molecules can be found in patent US5776944A, “7-(4-aminomethyl-3-methyloxyiminopyrroplidin-1-yl)-1-cyclopropyl-6-flu oro-4-oxo-1,4-dihydro-1,8-naphthyridine-3-carboxylic acid and the process for the preparation thereof” (LG Chemical Ltd., priority 1994, dated 1998).

≈ marks a conversion by molar mass, not a printed value. Like-named read-outs stand apart in the source and are kept apart here.

What all share (type): cell-based
Assay [1] concerns Staphylococcus aureus 6538p. In words: In vitro antibacterial activity (MIC, agar dilution), Biological Example 1. The conditions noted are these: 18 h, Table 25, read-out: Minimum Inhibitory Concentration. (In agar dilution the substance is mixed into plates at graded concentrations.)
Assay [2] relates to Staphylococcus aureus giorgio. The description is as above. The conditions noted are these: 18 h, Table 25, read-out: Minimum Inhibitory Concentration.
For assay [3], the system named is Staphylococcus aureus 77. Described as above. The following applies: 18 h; Staphylococcus aureus 77, Table 25; read-out: Minimum Inhibitory Concentration.
Assay [4] relates to Staphylococcus aureus 241. The assay is described as above. The following applies: 18 h; Staphylococcus aureus 241, Table 25; read-out: Minimum Inhibitory Concentration.
The test system of assay [5] is Staphylococcus epidermidis 887E. Described as above. The conditions noted are these: 18 h, Table 25, read-out: Minimum Inhibitory Concentration.
Assay [6] has as its system Staphylococcus epidermidis 178. The description is as above. The conditions noted are these: 18 h; Staphylococcus epidermidis 178, Table 25; read-out: Minimum Inhibitory Concentration.
Assay [7] deals with Streptococcus faecalis 29212. The description is as above. The following applies: Enterococcus faecalis, 18 h; Streptococcus faecalis 29212, Table 25; read-out: Minimum Inhibitory Concentration.
Assay [8] has as its system Bacillus subtilis 6633. The assay is described as above. The following applies: 18 h; Bacillus subtilis 6633, Table 25; read-out: Minimum Inhibitory Concentration.
Assay [9] concerns Micrococcus luteus 9341. Described as above. The following applies: 18 h; Micrococcus luteus 9341, Table 25; read-out: Minimum Inhibitory Concentration.
The subject of assay [10] is Escherichia coli 10536. The description is as above. The conditions noted are these: read-out: Minimum Inhibitory Concentration.
In assay [11] the test system is Escherichia coli 3190Y. Described as above. The following applies: 18 h, Table 25, read-out: Minimum Inhibitory Concentration.
Assay [12] has as its system Escherichia coli 851E. Described as above. The conditions noted are these: 18 h, Table 25, read-out: Minimum Inhibitory Concentration.
In assay [13] the test system is Escherichia coli TEM3 3455E. Kind of assay: microbe, parasite or virus in culture. The following applies: TEM33455E, 18 h, read-out: Minimum Inhibitory Concentration.
In assay [14] the test system is Escherichia coli TEM5 3739E. Kind of assay: microbe, parasite or virus in culture. The following applies: TEM53739E, 18 h, read-out: Minimum Inhibitory Concentration.
Assay [15] concerns Escherichia coli TEM9 2639E. Kind of assay: microbe, parasite or virus in culture. The conditions noted are these: TEM92639E, 18 h, read-out: Minimum Inhibitory Concentration.
Assay [16] concerns Pseudomonas aeruginosa 1912E. Kind of assay: In vitro antibacterial activity (MIC, agar dilution), Biological Example 1. The conditions noted are these: 18 h, read-out: Minimum Inhibitory Concentration.
For assay [17], the system named is Pseudomonas aeruginosa 10145. The assay is described as above. The following applies: 18 h; Pseudomonas aeruginosa 10145, Table 25; read-out: Minimum Inhibitory Concentration.
The test system of assay [18] is Acinetobacter calcoaceticus 15473. The description is as above. The conditions noted are these: read-out: Minimum Inhibitory Concentration.
The test system of assay [19] is Citrobacter diversus 2046E. The assay is described as above. The conditions noted are these: Citrobacter koseri, 18 h, Table 25, read-out: Minimum Inhibitory Concentration.
Assay [20] has as its system Enterobacter cloacae 1194E. Kind of assay: microbe, parasite or virus in culture. The following applies: 18 h, read-out: Minimum Inhibitory Concentration.
Assay [21] deals with Enterobacter cloacae P99. Kind of assay: microbe, parasite or virus in culture. The following applies: P99, 18 h, read-out: Minimum Inhibitory Concentration.
The subject of assay [22] is Klebsiella aerogenes 1976E. In words: In vitro antibacterial activity (MIC, agar dilution), Biological Example 1. The conditions noted are these: 18 h, Table 25, read-out: Minimum Inhibitory Concentration.
Assay [23] has as its system Klebsiella aerogenes 1082E. The description is as above. The following applies: 18 h, Table 25, read-out: Minimum Inhibitory Concentration.
In assay [24] the test system is Salmonella typimurium 14028. The assay is described as above. The following applies: 18 h; Salmonella typimurium 14028, Table 25; read-out: Minimum Inhibitory Concentration.
[25] abbreviates: 18 h, Escherichia coli 10536, Table 25.
The mark [26] stands for this setting: Pseudomonas aeruginosa 1912E, Table 25.
The mark [27] stands for this setting: 18 h, Acinetobacter calcoaceticus 15473, Table 25.

For the molecule `CC(C)CON=C1CN(c2nc3c(cc2F)c(=O)c(C(=O)O)cn3C2CC2)CC1CN` (stereo not drawn) [Example 102], the MIC in assay [1] was 0.016 µg/mL (≈ 0.0371 µM); in assay [2], not above 0.008 µg/mL; in [3] it was 0.016 µg/mL (≈ 0.0371 µM); in assay [4], 4 µg/mL (≈ 9.27 µM); in assay [5], not above 0.008 µg/mL; in [6], 1 µg/mL (≈ 2.32 µM). Besides, the MIC in assay [7] is 0.063 µg/mL (≈ 0.146 µM); in assay [8], not above 0.008 µg/mL; in [9], 0.063 µg/mL (≈ 0.146 µM); in assay [10] (setting [25]), not above 0.008 µg/mL; in [11] it was not above 0.008 µg/mL; in assay [12] it was 0.063 µg/mL (≈ 0.146 µM). In addition, the MIC in assay [13] is 0.5 µg/mL (≈ 1.16 µM); in [14] it was 0.25 µg/mL (≈ 0.579 µM); in [15], 0.063 µg/mL (≈ 0.146 µM); in assay [16] (setting [26]) it was 2 µg/mL (≈ 4.64 µM); in [17] it was 2 µg/mL (≈ 4.64 µM); in assay [18] (setting [27]), 0.063 µg/mL (≈ 0.146 µM). In addition, the MIC in assay [19] was 0.13 µg/mL (≈ 0.301 µM); in [20], 0.25 µg/mL (≈ 0.579 µM); in assay [21] it was 0.031 µg/mL (≈ 0.0718 µM); in assay [22] it was 0.5 µg/mL (≈ 1.16 µM); in assay [23], 0.25 µg/mL (≈ 0.579 µM); in assay [24], 0.25 µg/mL (≈ 0.579 µM).

Take `C#CCON=C1CN(c2nc3c(cc2F)c(=O)c(C(=O)O)cn3C2CC2)CC1CN` (stereo not drawn) [Example 103]: the MIC in assay [1] was not above 0.008 µg/mL; in assay [2] it was not above 0.008 µg/mL; in [3], not above 0.008 µg/mL; in assay [4] it was 4 µg/mL (≈ 9.68 µM); in assay [5], not above 0.008 µg/mL; in assay [6] it was 4 µg/mL (≈ 9.68 µM). In addition, the MIC was 0.031 µg/mL (≈ 0.075 µM) in assay [7]; not above 0.008 µg/mL in [8]; 0.13 µg/mL (≈ 0.314 µM) in [9]; not above 0.008 µg/mL in assay [10] (setting [25]); not above 0.008 µg/mL in [11]; not above 0.008 µg/mL in assay [12]. Besides, the MIC in assay [13] was 0.13 µg/mL (≈ 0.314 µM); in assay [14], 0.063 µg/mL (≈ 0.152 µM); in assay [15] it was 0.031 µg/mL (≈ 0.075 µM); in [16] (setting [26]), 0.5 µg/mL (≈ 1.21 µM); in [17], 0.5 µg/mL (≈ 1.21 µM); in [18] (setting [27]), 0.031 µg/mL (≈ 0.075 µM). In addition, the MIC in assay [19] is 0.13 µg/mL (≈ 0.314 µM); in assay [20], 0.016 µg/mL (≈ 0.0387 µM); in [21], not above 0.008 µg/mL; in [22], 0.063 µg/mL (≈ 0.152 µM); in assay [23] it was 0.031 µg/mL (≈ 0.075 µM); in [24], 0.031 µg/mL (≈ 0.075 µM).

Take `C#CCCON=C1CN(c2nc3c(cc2F)c(=O)c(C(=O)O)cn3C2CC2)CC1CN` (stereo not drawn) [Example 104]: the MIC in [1] is not above 0.008 µg/mL; in assay [2], not above 0.008 µg/mL; in [3], not above 0.008 µg/mL; in [4] it was 8 µg/mL (≈ 18.7 µM); in [5] it was 0.016 µg/mL (≈ 0.0374 µM); in assay [6], 4 µg/mL (≈ 9.36 µM). The MIC in assay [7] was 0.031 µg/mL (≈ 0.0725 µM); in assay [8], not above 0.008 µg/mL; in assay [9], 0.13 µg/mL (≈ 0.304 µM); in assay [10] (setting [25]), not above 0.008 µg/mL; in assay [11], not above 0.008 µg/mL; in [12] it was not above 0.008 µg/mL. The MIC in assay [13] was 0.25 µg/mL (≈ 0.585 µM); in assay [14] it was 0.13 µg/mL (≈ 0.304 µM); in [15], 0.031 µg/mL (≈ 0.0725 µM); in [16] (setting [26]) it was 1 µg/mL (≈ 2.34 µM); in [17], 1 µg/mL (≈ 2.34 µM); in assay [18] (setting [27]), not above 0.008 µg/mL. In addition, the MIC is not above 0.008 µg/mL in [19]; not above 0.008 µg/mL in [20]; 0.016 µg/mL (≈ 0.0374 µM) in [21]; 0.13 µg/mL (≈ 0.304 µM) in [22]; 0.031 µg/mL (≈ 0.0725 µM) in assay [23]; 0.031 µg/mL (≈ 0.0725 µM) in assay [24].

On to `CON=C1CN(c2c(F)cc3c(=O)c(C(=O)O)cn(C4CC4)c3c2Cl)CC1CN` (stereo not drawn) [Example 178, 7-(4-aminomethyl-3-methoxyiminopyrrolidin-1-yl)-8-chloro-1-cycloprooyl-6-fluoro-4-oxo-1,4-dihydroquinoline-3-carboxylic acid], for which the MIC came out at 0.031 µg/mL (≈ 0.0733 µM) in [1]; 0.016 µg/mL (≈ 0.0378 µM) in assay [2]; 0.031 µg/mL (≈ 0.0733 µM) in [3]; 1 µg/mL (≈ 2.36 µM) in assay [4]; 0.031 µg/mL (≈ 0.0733 µM) in assay [5]; 1 µg/mL (≈ 2.36 µM) in assay [6]. Besides, the MIC in [7] stood at 0.063 µg/mL (≈ 0.149 µM); in assay [8] it was 0.016 µg/mL (≈ 0.0378 µM); in assay [9] it was 0.25 µg/mL (≈ 0.591 µM); in [10] (Escherichia coli, 10536, 18 h), 0.031 µg/mL (≈ 0.0733 µM); in assay [11], 0.016 µg/mL (≈ 0.0378 µM); in [12], 0.063 µg/mL (≈ 0.149 µM). For the same molecule, the MIC is 1 µg/mL (≈ 2.36 µM) in assay [13]; 0.5 µg/mL (≈ 1.18 µM) in assay [14]; 0.25 µg/mL (≈ 0.591 µM) in [15]; 0.5 µg/mL (≈ 1.18 µM) in [16] (Pseudomonas aeruginosa, 1912E); 1 µg/mL (≈ 2.36 µM) in assay [17]; 0.13 µg/mL (≈ 0.307 µM) in assay [18] (Acinetobacter calcoaceticus, 15473, 18 h). The MIC in assay [19] came to 0.13 µg/mL (≈ 0.307 µM); in assay [20], 0.13 µg/mL (≈ 0.307 µM); in [21], 0.063 µg/mL (≈ 0.149 µM); in assay [22], 0.5 µg/mL (≈ 1.18 µM); in assay [23] it was 0.25 µg/mL (≈ 0.591 µM); in assay [24] it was 0.063 µg/mL (≈ 0.149 µM).
